Earlier results in patent publication US6562588B2, “Sialidase and recombinant cell lines” (Genentech, Inc., priority 1993, dated 2003).
Like-named read-outs stand apart in the source and are kept apart here.

Legend:
[1] = target: cytosolic sialidase from rat muscle (Rattus norvegicus, UniProt Q64627); conditions: read-out: Ki, rat muscle sialidase (Cytosol)
[2] = target: T1, lysosomal sialidase (Fibroblasts) (Homo sapiens, UniProt Q99519); conditions: read-out: Ki, fibroblast sialidase (Lysosome)
T1 construct: host or cells: fibroblasts

[3] = system: plasma membrane sialidase (Adenovirus Transformed Kidney Cells); conditions: read-out: Ki, adenovirus transformed kidney cell sialidase (Plasma Membrane)

Sequence of cytosolic sialidase from rat muscle (Q64627 whole entry): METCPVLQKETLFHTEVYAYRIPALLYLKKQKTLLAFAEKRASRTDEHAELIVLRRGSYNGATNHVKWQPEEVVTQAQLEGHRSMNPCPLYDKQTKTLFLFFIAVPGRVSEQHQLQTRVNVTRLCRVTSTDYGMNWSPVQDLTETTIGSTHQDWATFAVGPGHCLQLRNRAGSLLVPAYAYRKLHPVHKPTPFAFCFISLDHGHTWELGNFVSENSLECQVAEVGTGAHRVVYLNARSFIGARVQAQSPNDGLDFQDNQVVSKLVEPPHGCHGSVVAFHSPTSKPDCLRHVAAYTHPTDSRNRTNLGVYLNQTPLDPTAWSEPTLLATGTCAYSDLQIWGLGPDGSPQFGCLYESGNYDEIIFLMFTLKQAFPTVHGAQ

CC(=O)N[C@H]1[C@H]([C@H](O)[C@H](O)CN=[N+]=[N-])OC(C(=O)O)=C[C@@H]1O [9-Azido Neu5Ac2en, 5-acetamido-2,6-anhydro-9-azido-3,5,9-trideoxy-D-glycero-D-galacto-non-2-enonic acid]
Ki [1]: 50 µM
Ki [2]: 10 µM
Ki [3]: 10 µM

CC(=O)N[C@H]1[C@H]([C@H](O)[C@H](O)CSc2ccc(N=[N+]=[N-])cc2[N+](=O)[O-])OC(C(=O)O)=C[C@@H]1O [9-S-PANP Neu5Ac2en, 9-S-(4′-azido-2′-nitro-phenyl)-5-acetamido-2,6 anhydro-9-thio-2,5,9-trideoxy-D-glycero-D-galacto-non-2-enonic acid]
Ki ([1]; 4-MU-Neu5Ac as substrate, previously reported data): > 50 µM
